From patent US20240166641A1, “HETEROCYCLES AND USES THEREOF” (Kumquat Biosciences Inc., priority 2021, published 2024) come the findings set out here.

Experiment [1] deals with T1, PTP1B (Homo sapiens, UniProt P18031).
T1 sequence (P18031 1-435): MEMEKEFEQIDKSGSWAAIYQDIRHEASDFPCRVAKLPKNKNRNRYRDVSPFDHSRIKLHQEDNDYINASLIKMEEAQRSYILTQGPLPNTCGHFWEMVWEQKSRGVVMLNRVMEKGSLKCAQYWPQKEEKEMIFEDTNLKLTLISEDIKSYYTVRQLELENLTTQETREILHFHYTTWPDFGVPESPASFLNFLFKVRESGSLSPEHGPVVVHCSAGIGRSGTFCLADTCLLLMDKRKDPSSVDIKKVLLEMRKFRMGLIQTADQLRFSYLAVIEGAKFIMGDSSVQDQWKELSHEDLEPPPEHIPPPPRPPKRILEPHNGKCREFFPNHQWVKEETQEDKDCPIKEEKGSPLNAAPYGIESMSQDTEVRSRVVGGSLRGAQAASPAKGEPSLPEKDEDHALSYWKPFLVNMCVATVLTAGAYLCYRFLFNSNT
Nature of the experiment: Phosphatase activity assay (Bio-Biochem-DiFMUP), PTP1B. In kind it is biochemical. The following applies: DiFMUP substrate, room temperature. The gist of the method: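 Buffer was 50 mM Bis-Tris pH 6.3, 2 mM EDTA, 5 mM DMH, with 10 μM FDP or DiFMUP substrate, enzyme added last, at room temperature. Fluorescent product was read continuously for 15–30 min (DiFMU ex 360/em 450 nm; FMP ex 440/em 530 nm). Initial rates against 10-point inhibitor series were fitted with a 4-parameter equation to give IC50.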

For experiment [2], the system named is mouse C57BL/6 T cells. Nature of the experiment: pSTAT1 signaling in IFNα-stimulated T cells, flow cytometry. It counts as cell-based. The following applies: T-cell, 10 uM compound, T cells stimulated for 5 hours by IFNα, read-out: % pSTAT1 in cells treated with subject compounds relative to negative control (DMSO). The protocol: IFNα signaling in mouse C57BL/6 T cells promotes activation of multiple signaling pathways associated with antitumor responses. A key target of this signaling is phosphorylation of the transcription factor STAT1. […] T cells are stimulated for 5 hours by IFNα in the presence or absence of exemplified compounds disclosed herein (e.g., PTPN2 inhibitors) and stained intracellularly with antibodies for phosphorylated STAT1 and then analyzed by flow cytometry. Enhancement of phosphorylation of STAT1 is read out as a percentage over the DMSO control.

Experiment [3] deals with C57B3L/6 mouse primary T cells. Nature of the experiment: T-cell activation: CD25 expression on primary T cells stimulated with anti-CD3/CD28. It counts as cell-based. The note with it: 10 uM compound, primary T cells stimulated with antibodies to CD3 and CD28. The protocol: The increase of T cell activation and most importantly T cell function is a strategy for novel immune oncology approaches to promote tumor immunity. In vitro assays using wildtype C57B3L/6 mouse primary T cells are commonly used to assess the impact of compound on T cell activation and function. To assess the ability of compounds disclosed here (e.g., PTPN2 inhibitors) to stimulate T cell activation, primary T cells stimulated with antibodies to CD3 and CD28 are treated with or without exemplary compounds (at 10 uM) disclosed herein are stained with antibodies directed to T-cell activation markers, such as CD25. Additional markers including without limitation CD69, SLAMF6, TIM3, and PD1 can also be employed as a proxy for T cell activation.

The subject of experiment [4] is OT-1 cells. Nature of the experiment: T-cell activation: intracellular production of IFNγ and TNFα in exhausted OT-1 cells. It counts as cell-based. The following applies: 10 uM compound, OT-1 cells restimulated with 1 μM OVA, read-out: % TNFa + /IFNg + production in compound-treated cells (uM compound) relative to negative control (DMSO). The protocol: 1*10^6 OT-1 cells are seeded in a 24well in a volume of 1 mL of RPMI/10% FCS, and activated with 10 nM OVA protein for 48 h. Cells are then split 1:4 into 96well plates after two washes in warm media. To induce exhaustion, cells are then expanded for 3 days in the presence of vehicle control or a compound described herein (e.g., PTPN2 inhibitor) various concentrations, as well as 5 ng/ml IL-7 and 5 ng/ml IL-15, with the addition of fresh OVA on each day. After this point, cells are treated with Brefeldin A and restimulated with 1 μM of OVA for 4-6h, and cells are stained to assess production of IFNγ and TNFα intracellularly by flow cytometry. The results are shown as increase in percentage production of IFNγ and TNFα in cells treated with an exemplified compound at 10 uM, relative to a negative control (DMSO) of cells without being treated with the compound but merely DMSO (a solvent in which exemplified compounds are dissolved). See Table 10 below summarizes percentage increase in IFNγ and TNFα intracellular production in cells treated with an exemplified compound (at 10 uM) or without it, relative to a negative control (DMSO).

Each structure is given as a SMILES string. Bounds are passed on as bounds.

By IC50 is commonly meant the point on the concentration scale where inhibition reaches its midpoint. `CN1CCCC(COc2ccc3cc(O)c(N4CC(=O)NS4(=O)=O)c(F)c3n2)C1` (stereo not shown) [Compound 176]: the half-maximal inhibitory concentration (IC50) in experiment [1] was no more than 1000 nM. Also, the activity at 10 µM in experiment [2] was found to be 229%; in experiment [4] it was 193%. Also, in experiment [3], the “% CD25 expression in cells treated with subject compounds relative to negative control (DMSO)” value was 206%.

In the case of `O=C1CN(c2c(O)cc3ccc(OCC4CCS(=O)(=O)CC4)nc3c2F)S(=O)(=O)N1` [Compound 143], the IC50 in experiment [1] was no more than 1000 nM. For the same molecule, the activity at 10 µM in experiment [2] stood at 161%; in experiment [4], 174%. Besides, the “% CD25 expression in cells treated with subject compounds relative to negative control (DMSO)” value in experiment [3] is recorded as 323%.

On to `COc1ccc2cc(O)c(N3CC(=O)NS3(=O)=O)c(F)c2n1` [Compound 154], for which the IC50 in experiment [1] is no more than 1000 nM. Besides, the activity at 10 µM in experiment [2] was 303%; in experiment [4], 152%.

As for `CC(C)CCOc1ccc2cc(O)c(N3CC(=O)NS3(=O)=O)c(F)c2n1` [Compound 135, 5-(8-fluoro-6-hydroxy-2-(isopentyloxy)quinolin-7-yl)-1,2,5-thiadiazolidin-3-one 1,1-dioxide], the IC50 in experiment [1] is no more than 1000 nM. For the same molecule, the results for the activity at 10 µM in experiment [2] and in experiment [4] were 255% and 504%, respectively. Besides, the “% CD25 expression in cells treated with subject compounds relative to negative control (DMSO)” value in experiment [3] turned out to be 431%.

For `CNc1ccc2cc(O)c(N3CC(=O)NS3(=O)=O)c(F)c2n1` [Compound 153], the IC50 in experiment [1] was no more than 1000 nM. The activity at 10 µM in experiment [2] is 249%; in experiment [4], 132%.

On to `CC(C)CCNc1ccc2cc(O)c(N3CC(=O)NS3(=O)=O)c(F)c2n1` [Compound 117], for which the IC50 in experiment [1] is no more than 1000 nM. For the same molecule, the activity at 10 µM is 210% in experiment [2] and 236% in experiment [4]. Further, in experiment [3], the “% CD25 expression in cells treated with subject compounds relative to negative control (DMSO)” value stood at 363%.

As for `CN(C)CCOc1ccc2cc(O)c(N3CC(=O)NS3(=O)=O)c(F)c2n1` [Compound 178], in experiment [1], the IC50 was no more than 1000 nM. Also, the activity at 10 µM stood at 172% in experiment [2] and 168% in experiment [4].
